# From paper PMC9380671, “Development of spiro-3-indolin-2-one containing compounds of antiproliferative and anti-SARS-CoV-2 properties” (Scientific Reports, 2022)
# Where two headings read alike, the source gives them in different places.
# Columns and labels:
# VEGFR-2 = target: T1, VEGFR-2 (Homo sapiens, UniProt P35968); assay type: cell-based; conditions: western blot, MCF7, compound at its MTT IC50; for VEGFR-2 RQ (relative quantification): control RQ 3.2634
# T1 construct: Western blot technique was considered for EGFR and VEGFR-2 properties determination; endogenous in cells; host or cells: MCF7 (breast cancer cell line)
# T1 sequence (P35968 20-1356): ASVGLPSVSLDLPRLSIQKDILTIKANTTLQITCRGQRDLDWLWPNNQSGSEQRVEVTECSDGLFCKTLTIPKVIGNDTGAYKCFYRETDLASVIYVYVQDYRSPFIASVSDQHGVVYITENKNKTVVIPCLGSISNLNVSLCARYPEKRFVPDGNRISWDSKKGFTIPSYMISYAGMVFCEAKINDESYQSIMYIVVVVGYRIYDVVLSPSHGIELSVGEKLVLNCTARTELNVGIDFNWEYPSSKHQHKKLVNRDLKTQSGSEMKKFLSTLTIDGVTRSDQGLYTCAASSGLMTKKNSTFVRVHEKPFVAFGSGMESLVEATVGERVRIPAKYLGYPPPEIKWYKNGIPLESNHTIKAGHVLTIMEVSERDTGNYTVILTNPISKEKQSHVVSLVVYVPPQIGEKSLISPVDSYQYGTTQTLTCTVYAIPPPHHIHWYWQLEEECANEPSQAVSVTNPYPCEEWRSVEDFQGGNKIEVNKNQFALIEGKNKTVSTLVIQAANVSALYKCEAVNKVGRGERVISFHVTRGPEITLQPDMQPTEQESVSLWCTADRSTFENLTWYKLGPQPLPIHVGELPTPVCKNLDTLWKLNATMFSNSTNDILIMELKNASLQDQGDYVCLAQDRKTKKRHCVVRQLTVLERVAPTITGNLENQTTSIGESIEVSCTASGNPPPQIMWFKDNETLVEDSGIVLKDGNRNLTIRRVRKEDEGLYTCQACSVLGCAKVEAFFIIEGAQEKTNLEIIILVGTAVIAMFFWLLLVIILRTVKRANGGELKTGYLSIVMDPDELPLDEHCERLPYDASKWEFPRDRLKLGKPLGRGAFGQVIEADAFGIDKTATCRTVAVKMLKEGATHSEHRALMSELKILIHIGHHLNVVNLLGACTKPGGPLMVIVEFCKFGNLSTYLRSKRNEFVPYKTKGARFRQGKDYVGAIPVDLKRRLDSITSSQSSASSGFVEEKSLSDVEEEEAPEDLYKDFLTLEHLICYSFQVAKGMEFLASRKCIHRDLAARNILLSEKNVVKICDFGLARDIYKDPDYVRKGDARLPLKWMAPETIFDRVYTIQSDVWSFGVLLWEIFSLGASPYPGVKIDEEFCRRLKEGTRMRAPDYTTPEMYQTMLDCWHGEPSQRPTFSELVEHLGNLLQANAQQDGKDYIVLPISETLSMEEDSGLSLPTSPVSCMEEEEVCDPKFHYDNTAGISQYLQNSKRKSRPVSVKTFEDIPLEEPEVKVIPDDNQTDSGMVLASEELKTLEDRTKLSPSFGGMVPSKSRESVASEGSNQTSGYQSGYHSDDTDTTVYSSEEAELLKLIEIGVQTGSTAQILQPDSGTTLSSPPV
# Text: (§1) The western blot technique was applied utilizing the IC50 observed for each respective agent synthesized during MTT assay[85],[86]. Consideration of multi-targeted inhibitory properties investigation is based in the fact that cancer initiation and proliferation sometimes utilizes many receptors or signaling pathways.
# (§2) Western blot technique was considered for EGFR and VEGFR-2 properties determination utilizing the IC50 observed of each respective agent synthesized during MTT assay against MCF7 (breast) cancer cell line. All the studies were conducted according to the manufacturer’s instruction.^10,^11
# EGFR = target: T2, EGFR (Homo sapiens, UniProt P00533); assay type: cell-based; conditions: western blot, MCF7, compound at its MTT IC50; for EGFR RQ (relative quantification): control RQ 3.4461
# T2 construct: Western blot technique was considered for EGFR and VEGFR-2 properties determination; endogenous in cells; host or cells: MCF7 (breast cancer cell line)
# T2 sequence (P00533 25-1210): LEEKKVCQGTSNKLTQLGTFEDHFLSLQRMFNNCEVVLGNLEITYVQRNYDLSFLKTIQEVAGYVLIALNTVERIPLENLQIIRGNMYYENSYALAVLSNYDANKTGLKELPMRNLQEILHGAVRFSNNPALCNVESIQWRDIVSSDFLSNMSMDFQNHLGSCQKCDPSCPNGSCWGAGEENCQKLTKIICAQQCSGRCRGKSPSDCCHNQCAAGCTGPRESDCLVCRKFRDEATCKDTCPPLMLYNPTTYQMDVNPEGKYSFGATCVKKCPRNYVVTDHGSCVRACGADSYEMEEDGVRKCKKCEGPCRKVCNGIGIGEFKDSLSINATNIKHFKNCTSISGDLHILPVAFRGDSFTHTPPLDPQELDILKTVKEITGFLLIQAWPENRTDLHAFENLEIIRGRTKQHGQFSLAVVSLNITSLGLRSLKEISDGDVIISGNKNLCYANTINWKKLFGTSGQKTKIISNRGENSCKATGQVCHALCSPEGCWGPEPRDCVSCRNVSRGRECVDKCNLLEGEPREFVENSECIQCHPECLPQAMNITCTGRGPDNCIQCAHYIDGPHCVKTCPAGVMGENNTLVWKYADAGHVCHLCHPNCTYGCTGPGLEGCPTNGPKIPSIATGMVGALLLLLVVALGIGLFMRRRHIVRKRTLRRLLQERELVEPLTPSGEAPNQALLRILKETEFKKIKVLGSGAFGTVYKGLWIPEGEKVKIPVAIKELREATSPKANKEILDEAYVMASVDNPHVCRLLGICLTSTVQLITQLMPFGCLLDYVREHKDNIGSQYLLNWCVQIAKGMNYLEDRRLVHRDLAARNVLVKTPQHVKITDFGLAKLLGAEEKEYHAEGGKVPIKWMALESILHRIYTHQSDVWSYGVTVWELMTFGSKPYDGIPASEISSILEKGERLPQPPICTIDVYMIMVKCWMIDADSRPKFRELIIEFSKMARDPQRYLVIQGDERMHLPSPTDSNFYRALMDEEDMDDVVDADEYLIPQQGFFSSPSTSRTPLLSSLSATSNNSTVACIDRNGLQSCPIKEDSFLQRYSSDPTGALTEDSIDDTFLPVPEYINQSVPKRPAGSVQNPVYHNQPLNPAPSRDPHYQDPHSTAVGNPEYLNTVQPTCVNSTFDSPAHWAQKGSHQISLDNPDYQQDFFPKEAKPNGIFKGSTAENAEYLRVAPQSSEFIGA
# Text: as §1, §2
# BChE = BChE (Homo sapiens, UniProt P06276); assay: BChE inhibition (DTNB, butyrylthiocholine iodide)
# Sequence of BChE (P06276 29-602, species assumed): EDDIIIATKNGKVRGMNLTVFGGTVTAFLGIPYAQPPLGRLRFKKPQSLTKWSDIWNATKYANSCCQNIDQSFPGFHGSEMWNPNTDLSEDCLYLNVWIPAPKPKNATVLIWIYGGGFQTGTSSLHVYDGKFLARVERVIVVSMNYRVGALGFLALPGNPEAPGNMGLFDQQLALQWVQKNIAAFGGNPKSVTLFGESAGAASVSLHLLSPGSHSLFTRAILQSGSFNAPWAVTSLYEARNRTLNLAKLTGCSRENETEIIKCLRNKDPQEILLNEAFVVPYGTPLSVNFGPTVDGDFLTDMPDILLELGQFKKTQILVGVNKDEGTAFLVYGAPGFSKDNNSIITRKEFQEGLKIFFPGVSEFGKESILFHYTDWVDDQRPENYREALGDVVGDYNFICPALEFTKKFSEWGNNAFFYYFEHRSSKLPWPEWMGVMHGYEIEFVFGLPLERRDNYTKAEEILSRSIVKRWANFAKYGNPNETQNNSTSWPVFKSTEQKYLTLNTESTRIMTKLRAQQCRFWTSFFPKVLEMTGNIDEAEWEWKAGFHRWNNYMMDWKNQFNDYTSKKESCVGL
# [1] = system: A431 (skin squamous) cancer cell line; assay: MTT antiproliferation, A431; assay type: cell-based, human; conditions: for IC50: Homo sapiens; for SI (selectivity index) A431: IC50 of RPE1/IC50 of cancer cell line
# Protocol: (§3) Antiproliferation properties of the targeted agents were investigated by the standard MTT technique against diverse human cancer cell lines [MCF7 (breast), HCT116 (colon), A431 (skin squamous) and PaCa2 (pancreatic)][67] (Table 1, Supplementary Figs. S48‒S51).
# (§4) Cells were seeded at concentration of 30000 cells per well in fresh complete growth medium in 96-well tissue culture microtiter plates for 24 h. […] 0.5% DMSO was used as negative control. Triplicate wells were prepared for each individual dose. After 72 h of incubation, medium was aspirated, 40 μl MTT salt (2.5 mg ml^-1) was added to each well and incubated for further 4 h at 37 °C. To stop the reaction and dissolve the formed crystals, 150 μl of 10% sodium dodecyl sulfate (SDS) in deionized water was added to each well and incubated overnight at 37 °C.
# (§5) Data were collected as mean values for experiments performed in triplicates for each individual dose which had been measured by MTT assay. […] The cell surviving fraction was calculated according to the following equation.
# (§6) Surviving fraction = OpticaldensityO.D.oftreatedcellsO.D.ofcontrolcells
# (§7) Statistical calculations for determination of the mean and standard error mean values were determined by SPSS 16 software.
# [2] = system: SARS-CoV-2 (hCoV-19/Egypt/NRC-03/2020); assay: Vero-E6 cell viral infection model, anti-SARS-CoV-2 IC50 (CPE, crystal violet); assay type: cell-based; conditions: for IC50: Severe acute respiratory syndrome coronavirus 2, Vero C1008; for SI = CC50/IC50: Vero-E6, SARS-CoV-2
# [3] = system: HCT116 (colon) cancer cell line; assay: MTT antiproliferation, HCT116; assay type: cell-based, human; conditions: for IC50: Homo sapiens, HCT-116, 72 h, read-out: IC50 (µM) ± SEM HCT116; for SI (selectivity index) HCT116: IC50 of RPE1/IC50 of cancer cell line
# Protocol: as §3, §4, §5, §6, §7
# [4] = MTT cytotoxicity assay (CC50); assay type: cell-based; conditions: African green monkey, VERO-E6 cells
# Protocol: The cytotoxic activity of the compounds was tested in VERO-E6 cells by using the 3-(4,5-dimethylthiazol-2-yl)-2,5-diphenyltetrazolium bromide (MTT) method with minor modifications. Briefly, the cells were seeded in 96 well-plates […] at a density of 3 x 10^5 cell/ml and incubated for 24 h at 37 °C in 5% CO2. After 24 h, cells were treated with various concentrated of the tested compounds in triplicates. 24 h later, the supernatant was discarded and cell monolayers were washed with sterile 1x phosphate buffer saline (PBS) 3 times and MTT solution (20 µl of 5 mg/ml) was added to each well and incubated at 37 °C for 4 h followed by medium aspiration. In each well, the formed formazan crystals were dissolved with 200 µl of acidified isopropanol (0.04 M HCl in absolute isopropanol = 0.073 ml HCl in 50 ml isopropanol). Eventually, the absorbance was measured at λmax 570 nm using the Anthos Zenyth 200rt plate reader (Anthos Labtec Instruments, Heerhugowaard, Netherlands). The cytotoxicity of various concentrations compared to the untreated cells was determined using nonlinear regression analysis by plotting log inhibitor versus normalized response.^12^-14
# AChE = AChE (Homo sapiens, UniProt P22303); assay: AChE inhibition (DTNB, acetylthiocholine); assay type: biochemical; conditions: for IC50: read-out: AChE (IC50, μM) ± SD
# Sequence of AChE (P22303 32-614): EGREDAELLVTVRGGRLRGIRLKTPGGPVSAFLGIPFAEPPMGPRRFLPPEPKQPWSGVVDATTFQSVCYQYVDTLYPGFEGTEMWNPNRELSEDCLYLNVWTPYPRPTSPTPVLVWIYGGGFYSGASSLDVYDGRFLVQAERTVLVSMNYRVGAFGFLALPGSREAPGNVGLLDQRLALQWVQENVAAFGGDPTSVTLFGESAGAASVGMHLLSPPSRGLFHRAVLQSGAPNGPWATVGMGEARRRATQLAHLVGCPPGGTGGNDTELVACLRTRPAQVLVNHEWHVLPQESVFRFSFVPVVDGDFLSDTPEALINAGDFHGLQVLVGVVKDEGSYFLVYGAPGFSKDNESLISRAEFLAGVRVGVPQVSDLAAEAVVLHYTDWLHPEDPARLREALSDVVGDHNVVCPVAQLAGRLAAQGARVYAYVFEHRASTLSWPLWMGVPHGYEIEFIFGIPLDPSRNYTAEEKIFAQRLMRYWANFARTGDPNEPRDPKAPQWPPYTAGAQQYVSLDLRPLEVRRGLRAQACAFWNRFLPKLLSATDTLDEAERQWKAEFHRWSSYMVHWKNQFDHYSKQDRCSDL
# Protocol: All compounds were dissolved in MeOH.
# [5] = system: RPE1 (normal human immortalized retinal pigment epithelial cell line); assay: MTT toxicity towards normal cells, RPE1; assay type: cell-based; conditions: RPE-1, read-out: IC50 (µM) ± SEM RPE1
# Protocol: The safety of the synthesized agents against non-cancer/normal RPE1 (retinal pigment epithelium) cell line was assessed (Table 1, Supplementary Fig. S52). The SI (selectivity index) for the tested compounds against RPE1 cell line confirms the safety towards non-cancer cells. […] Compound 6d and 6h which are also of high anti-PaCa2 show remarkable SI values (SI = > 3.8, > 3.6, respectively).
# The agents synthesized were also tested against RPE1 (normal human immortalized retinal pigment epithelial cell line) cell (in DMEM-F12 medium) to determine the toxicity/selectivity towards normal cells relative to the cancer cell lines utilized.
# (§8) Statistical calculations for determination of the mean and standard error mean values were determined by SPSS 16 software. The observed anti-proliferative properties are presented in Table 1 (Supplementary Figs. S48‒S52).
# [6] = system: MCF7 (breast) cancer cell line; assay: MTT antiproliferation, MCF7; assay type: cell-based, human; conditions: for IC50: Homo sapiens, MCF7, 72 h, read-out: IC50 (µM) ± SEM MCF7; for SI (selectivity index) MCF7: IC50 of RPE1/IC50 of cancer cell line
# Protocol: as §3, §4, §5, §6, §7
# [7] = system: PaCa2 (pancreatic) cancer cell line; assay: MTT antiproliferation, PaCa-2; assay type: cell-based, human; conditions: for IC50: Homo sapiens, read-out: IC50 (µM) ± SEM PaCa-2; for SI (selectivity index) PaCa-2: IC50 of RPE1/IC50 of cancer cell line
# Protocol: as §3
# Cells were suspended in DMEM medium for MCF7, A431, PaCa-2 and McCoy’s 5A for HCT116 in addition to 1% antibiotic–antimycotic mixture (10000 μg ml^-1 potassium penicillin, 10000 μg ml^-1 streptomycin sulfate and 25 μg ml^-1 amphotericin B), 10% fetal bovine serum and 1% L-glutamine at 37 °C, under 5% CO2 and 95% humidity. Cells were seeded at concentration of 30000 cells per well in fresh complete growth medium in 96-well tissue culture microtiter plates for 24 h. Media was aspirated, fresh complete medium was added and cells were incubated with different concentrations of the tested compound to give a final concentration of [50, 25, 12.5 and 6.25 μM “in addition to 3.125, 1.56 and 0.78 μM in case of high potent analogues”). 0.5% DMSO was used as negative control. Triplicate wells were prepared for each individual dose. After 72 h of incubation, medium was aspirated, 40 μl MTT salt (2.5 mg ml^-1) was added to each well and incubated for further 4 h at 37 °C. To stop the reaction and dissolve the formed crystals, 150 μl of 10% sodium dodecyl sulfate (SDS) in deionized water was added to each well and incubated overnight at 37 °C. The absorbance was then measured at 570 nm and a reference wavelength of 595 nm.
# as §5, §6, §8
# [8] = A-431, 72 h, read-out: IC50 (µM) ± SEM A431
# [9] = A-431, read-out: Observed log(IC50, μM) (A431) (converted)
# [10] = Vero-E6, 72 h, reduction of virus-induced CPE, read-out: IC50 (µM) SARS-CoV-2
# [11] = log of observed IC50 in μM, read-out: Observed log(IC50, μM) (SARS-CoV-2) (converted)
Compound,VEGFR-2 % Inhibition (VEGFR-2) [%],VEGFR-2 RQ (relative quantification) (VEGFR-2),EGFR % Inhibition (EGFR) [%],EGFR RQ (relative quantification) (EGFR),IC50 (BChE) [µM],"IC50 [1, 8] [µM]","IC50 [1, 9] [µM]",SI (selectivity index) A431 [1],"IC50 [2, 10] [µM]","IC50 [2, 11] [µM]",SI = CC50/IC50 [2],IC50 [3] [µM],SI (selectivity index) HCT116 [3],CC50 at 24 h [4] [µM],SI = IC50 (AChE)/IC50 (BChE) (AChE),IC50 (AChE) [µM],IC50 [5] [µM],IC50 [6] [µM],SI (selectivity index) MCF7 [6],"IC50 ([7]; PaCa-2, 72 h) [µM]",further results
"CCS(=O)(=O)N1C/C(=C\c2ccccc2)C(=O)C2(C1)C(c1ccccc1)CN(C)C21C(=O)Nc2ccc(Cl)cc21 (stereo not shown) [Compound 6d, (E)-5″-Benzylidene-5-chloro-1″-(ethylsulfonyl)-1′-methyl-4′-phenyldispiro[indoline-3,2′-pyrrolidine-3′,3″-piperidine]-2,4″-dione]",63.8,1.181,62.9,1.2774,34.4 ± 2,4.96 ± 0.25,4.96,> 10.1,171,171,101.1,5.18 ± 0.61,> 9.7,17300,1.2,41 ± 7.03,> 50,6.92 ± 0.55,> 7.2,13.1 ± 1.1,SI (selectivity index) PaCa-2 [7]: > 3.8
"COc1ccc(/C=C2\CN(S(C)(=O)=O)CC3(C2=O)C(c2ccc(OC)c(OC)c2)CN(C)C32C(=O)Nc3ccc(Cl)cc32)cc1OC (stereo not shown) [Compound 6o, (E)-5-Chloro-5″-(3,4-dimethoxybenzylidene)-4′-(3,4-dimethoxyphenyl)-1′-methyl-1″-(methylsulfonyl)dispiro[indoline-3,2′-pyrrolidine-3′,3″-piperidine]-2,4″-dione]",61.8,1.2473,65.9,1.175,24.9 ± 4.6,45.4 ± 1.84,45.4,> 1.1,88.2,88.2,2.2,28.5 ± 0.75,> 1.8,196,1.1,27 ± 6.7,> 50,48.9 ± 1.84,> 1.0,> 50,–
"CN1CC(c2ccccc2)C2(CN(S(C)(=O)=O)C/C(=C\c3ccccc3)C2=O)C12C(=O)Nc1ccccc12 (stereo not shown) [Compound 6a, (E)-5″-Benzylidene-1′-methyl-1″-(methylsulfonyl)-4′-phenyldispiro[indoline-3,2′-pyrrolidine-3′,3″-piperidine]-2,4″-dione]",60.9,1.2773,66.4,1.1593,19.8 ± 2.18,32.3 ± 1.14,32.3,> 1.5,34.3,34.3,158.6,16 ± 1.1,> 3.1,5430,1.1,22.2 ± 3.35,> 50,19.8 ± 0.99,> 2.5,48.4 ± 2.23,SI (selectivity index) PaCa-2 [7]: > 1.0
"CN1CC(c2ccc(Cl)cc2)C2(CN(S(C)(=O)=O)C/C(=C\c3ccc(Cl)cc3)C2=O)C12C(=O)Nc1ccccc12 (stereo not shown) [Compound 6i, (E)-5″-(4-Chlorobenzylidene)-4′-(4-chlorophenyl)-1′-methyl-1″-(methylsulfonyl)dispiro[indoline-3,2′-pyrrolidine-3′,3″-piperidine]-2,4″-dione]",64.2,1.1684,68.7,1.077,13.6 ± 2.12,4.4 ± 0.49,4.4,3.4,113,113,2.1,5.47 ± 0.32,2.7,235,1.3,18.2 ± 1.48,14.8 ± 1.57,5.01 ± 0.29,2.9,9.04 ± 0.62,SI (selectivity index) PaCa-2 [7]: 1.6
"CCS(=O)(=O)N1C/C(=C\c2ccccc2)C(=O)C2(C1)C(c1ccccc1)CN(C)C21C(=O)Nc2ccccc21 (stereo not shown) [Compound 6c, (E)-5″-Benzylidene-1″-(ethylsulfonyl)-1′-methyl-4′-phenyldispiro[indoline-3,2′-pyrrolidine-3′,3″-piperidine]-2,4″-dione]",63.8,1.18,69.6,1.0493,65.4 ± 2.42,33.2 ± 0.91,33.2,> 1.5,103,103,55.5,6.12 ± 0.44,> 8.2,5700,1.2,78 ± 3.26,> 50,> 50,–,> 50,–
"CCN(CC)CCNC(=O)c1c(C)[nH]c(/C=C2\C(=O)Nc3ccc(F)cc32)c1C [Sunitinib, reference compound]",–,–,–,–,–,–,–,–,–,–,–,–,–,–,–,–,–,–,–,–,"IC50 ([7]; MTT, 72 h, PaCa-2): 16.9 ± 0.95 µM"
